Values of other authors in patent publication US7288270B1, “Therapeutic composition for the prevention and treatment of mucositis and mucosal disorders” (priority 2002, dated 2007).

Legend:
mucositis [1] = settings: human, in vivo
[2] = test system: Gram negative bacteria that tend to colonize the oral cavity; settings: patients undergoing radiation therapy
eczema = settings: ointment, topical
Herpes virus = settings: in test tubes
mucositis [3] = settings: subsequent randomized and controlled studies
Enterococcus faecalis = settings: in the solvent dimethyl sulfoxide; one range given for three species
Pseudomonas aeruginosa = settings: in the solvent dimethyl sulfoxide; one range given for three species
[4] = test system: dermatophytes (Trichophyton mentagrophytes, Trichophyton tonsurans, Trichophyton rubrum, Epidermophyton floccosum, Microsporum gypseum)
HSV-1 = settings: dose-dependent, reversible manner
HSV-2 = settings: dose-dependent, reversible manner
Staphylococcus aureus = settings: in the solvent dimethyl sulfoxide; one range given for three species

Compound: [H]/N=C(\N/C(=N/[H])NCCCCCCNC(=N)NC(=N)Nc1ccc(Cl)cc1)Nc1ccc(Cl)cc1 [chlorhexidine, Chlorhexidine]
- incidence of mucositis (mucositis [1]): higher incidence of mucositis
- effectiveness against Gram negative bacteria of the oral cavity [2]: relatively ineffective

Compound: CC1(C)[C@@H](O)CC[C@]2(C)[C@H]3C(=O)C=C4[C@@H]5C[C@@](C)(C(=O)O)CC[C@]5(C)CC[C@@]4(C)[C@]3(C)CC[C@@H]12 [glycyrrhetinic acid]
- improvement of eczema compared with hydrocortisone (eczema): as effective as hydrocortisone

Compound: CC1(C)[C@@H](O[C@H]2O[C@H](C(=O)O)[C@@H](O)[C@H](O)[C@H]2O[C@@H]2O[C@H](C(=O)O)[C@@H](O)[C@H](O)[C@H]2O)CC[C@]2(C)[C@H]3C(=O)C=C4[C@@H]5C[C@@](C)(C(=O)O)CC[C@]5(C)CC[C@@]4(C)[C@]3(C)CC[C@@H]12 [glycyrrhizic acid]
- inhibition of herpes virus (Herpes virus): inhibited

Compound: CC(=O)CCCCn1c(=O)c2c(ncn2C)n(C)c1=O [pentoxifylline]
- benefit in mucositis (mucositis [3]): failed to demonstrate any benefit

Compound: Oc1ccc(/C=C/c2cc(O)cc(O)c2)cc1 [resveratrol, 3,5,4′-trihdyroxystilbene]
- concentration at which growth was inhibited (Enterococcus faecalis): 171 to 342 µg/mL
- concentration at which growth was inhibited (Pseudomonas aeruginosa): 171 to 342 µg/mL
- concentration at which growth of dermatophytes was inhibited [4]: 25 to 50 µg/mL
- inhibition of HSV-1 replication (HSV-1): inhibit
- inhibition of HSV-2 replication (HSV-2): inhibit
- concentration at which growth was inhibited (Staphylococcus aureus): 171 to 342 µg/mL
